Legend:
[1] = system: MYPT1 Ser445 phosphorylation; assay: MYPT1 Ser445 phosphorylation on EDTA-induced detachment, HEK-293; format: cell-based, human; details: HEK-293, 16 h; for Suppression of MYPT1 Ser445 phosphorylation (in words): HTH-01-015 at 10 μM
Experimental: HEK (human embryonic kidney)-293 and U2OS cells were cultured in DMEM (Dulbecco's modified Eagle's medium) supplemented with 10% FBS, 2 mM glutamine and 1×antibacterial/antimycotic solution. NUAK1^+/+ and NUAK1^−/− MEFs were cultured in DMEM supplemented with 10% (v/v) FBS and 2 mM glutamine, 1×antibacterial/antimycotic solution, 1% (v/v) non-essential amino acids and 1% (v/v) sodium pyruvate. HEK-293 Flp/In T-Rex cell lines were cultured in DMEM supplemented with 10% (v/v) FBS and 2 mM glutamine, 1×antibacterial/antimycotic solution, 100 μg/ml hygromycin and 15 μg/ml blasticidin. Supplementing the culture medium with 0.1 μg/ml doxycycline for 16–24 h induced protein expression in the HEK-293 Flp/In T-Rex cells. Cell counting was carried out using Invitrogen Countess following the manufacturer's protocol. A cell-detachment assay was carried out on HEK-293 cells using PBS-EDTA-based cell dissociation buffer as described previously. An inhibitor dose-dependence assay was carried out by treating the cells with various concentrations of the inhibitors as indicated in the Figure legends. The inhibitors were dissolved in DMSO and the total concentration of DMSO in the culture media never exceeded 1%. Transient transfections of HEK-293 cells were carried out using PEI [24]. Stable transfections were carried out in HEK-293 Flp/In T-Rex cells (Invitrogen) following the manufacturer's protocol. Lentivirus-mediated knock down of NUAK1 was carried out in U2OS cells using shRNA constructs as described previously. Post-treatment and/or transfection, cells were lysed in lysis buffer containing 50 mM Tris/HCl (pH 7.5), 1 mM EGTA, 1 mM EDTA, 1% Triton X-100, 50 mM NaF, 10 mM sodium 2-glycerophosphate, 5 mM sodium pyrophosphate, 1 mM sodium orthovanadate, 0.27 M sucrose, 1 mM benzamidine (added before lysis), 1 mM PMSF (added before lysis) and 0.1% 2-mercaptoethanol (added before lysis). Lysates were clarified by centrifugation at 16000 g for 15 min at 4°C and either used for further experiments or snap-frozen in liquid nitrogen and stored at −80°C. Protein estimation was carried out using the Bradford method with BSA as a standard.
Figure 5 HTH-01-015 and WZ4003 inhibit MYPT1 Ser^445 phosphorylation in vivo (A) HEK-293 cells were treated in the absence (DMSO) or presence of the indicated concentrations of WZ4003 over 16 h. Cell medium was then replaced with either normal DMEM containing no EDTA-PBS-based cell dissociation buffer (−) or EDTA-PBS-based cell dissociation buffer (+) containing the same concentration of WZ4003 that the cells were previously incubated in. Cell detachment was induced with gentle tapping of the plates followed by gentle centrifugation at 70 g for 3 min. Cells were lysed immediately after removal of the supernatant. Endogenous MYPT1 was immunoprecipitated from 0.5 mg of the cell lysates. The immunoprecipitates were immunoblotted for the detection of p-Ser^445 MYPT1 and total MYPT1. The cell lysates were subjected to immunoblotting for the detection of p-Ser^79 ACC and total ACC. Similar results were obtained in three separate experiments. (B) As in (A) except for the HTH-01-015 inhibitor was used. (C–F) As above except that HEK-293 Flp/In T-Rex cells stably expressing the indicated wild-type HA-tagged NUAK1 or drug-resistant HA-tagged NUAK1[A195T] were used. Similar results were obtained in three separate experiments for all data shown on this Figure.

[2] = target: T1, Aurora A (Homo sapiens, UniProt O14965); assay: Kinase profiling; format: biochemical; details: for Inhibition of Aurora A in profiling (in words; Aurora isoforms): 1 μM
T1 sequence (O14965 1-403): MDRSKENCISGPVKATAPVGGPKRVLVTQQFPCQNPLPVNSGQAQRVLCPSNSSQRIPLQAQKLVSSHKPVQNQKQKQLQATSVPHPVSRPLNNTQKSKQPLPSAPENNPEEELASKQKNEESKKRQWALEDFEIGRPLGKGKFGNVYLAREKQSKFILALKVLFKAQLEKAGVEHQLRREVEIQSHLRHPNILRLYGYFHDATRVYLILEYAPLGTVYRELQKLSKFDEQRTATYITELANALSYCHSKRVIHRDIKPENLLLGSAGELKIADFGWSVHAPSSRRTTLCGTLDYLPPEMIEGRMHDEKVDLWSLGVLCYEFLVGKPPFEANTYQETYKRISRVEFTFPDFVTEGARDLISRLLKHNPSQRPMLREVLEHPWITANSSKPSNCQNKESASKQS
Experimental: (§1) Kinase inhibitor specificity profiling assays were carried out at The International Centre for Protein Kinase Profiling (http://www.kinase-screen.mrc.ac.uk/) against a panel of 140 protein kinases as described previously. Results are presented as a percentage of kinase activity in DMSO control reactions. Protein kinases were assayed in vitro with 0.1 or 1 μM of the inhibitors and the results are presented as an average of triplicate reactions±S.D. or in the form of comparative histograms.

[3] = target: T2, BRSK1 (Homo sapiens, UniProt Q8TDC3); assay: Kinase profiling; format: biochemical; details: for BRSK1 activity, percentage of DMSO control: 0.1 or 1 μM inhibitor, mean of triplicate
T2 sequence (Q8TDC3 1-778): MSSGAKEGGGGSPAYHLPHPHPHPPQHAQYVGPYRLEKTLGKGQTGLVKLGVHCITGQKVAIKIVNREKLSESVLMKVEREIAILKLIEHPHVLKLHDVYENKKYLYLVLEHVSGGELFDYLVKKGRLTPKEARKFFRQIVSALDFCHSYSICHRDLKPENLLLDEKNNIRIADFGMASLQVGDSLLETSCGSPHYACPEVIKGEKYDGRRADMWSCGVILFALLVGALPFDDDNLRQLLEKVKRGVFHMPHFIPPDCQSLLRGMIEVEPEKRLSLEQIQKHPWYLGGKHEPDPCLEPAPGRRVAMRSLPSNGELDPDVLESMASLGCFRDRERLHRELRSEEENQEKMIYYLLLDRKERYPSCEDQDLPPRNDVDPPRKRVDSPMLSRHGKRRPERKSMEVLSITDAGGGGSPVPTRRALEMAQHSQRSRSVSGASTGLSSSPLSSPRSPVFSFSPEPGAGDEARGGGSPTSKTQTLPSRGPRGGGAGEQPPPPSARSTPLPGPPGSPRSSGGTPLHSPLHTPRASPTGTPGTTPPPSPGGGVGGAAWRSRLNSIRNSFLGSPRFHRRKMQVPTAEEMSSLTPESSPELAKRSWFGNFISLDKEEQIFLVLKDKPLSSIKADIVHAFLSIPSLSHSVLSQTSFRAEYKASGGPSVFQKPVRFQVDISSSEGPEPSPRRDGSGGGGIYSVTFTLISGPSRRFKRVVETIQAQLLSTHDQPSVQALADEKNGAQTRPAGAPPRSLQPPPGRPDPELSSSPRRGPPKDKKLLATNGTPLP
Experimental: as §1

[4] = target: JAK2 (Homo sapiens, UniProt O60674); assay: Kinase profiling; format: biochemical; details: for Inhibition of JAK2 in profiling (in words): 1 μM; for JAK2 activity, percentage of DMSO control: 0.1 or 1 μM inhibitor, mean of triplicate
Experimental: as §1

[5] = target: Aurora B (Homo sapiens, UniProt Q96GD4); assay: Kinase profiling; format: biochemical; details: for Inhibition of Aurora B in profiling (in words; Aurora isoforms): 1 μM; for Aurora B activity, percentage of DMSO control: 0.1 or 1 μM inhibitor, mean of triplicate
Experimental: as §1

Sequence of JAK2 (O60674 whole entry): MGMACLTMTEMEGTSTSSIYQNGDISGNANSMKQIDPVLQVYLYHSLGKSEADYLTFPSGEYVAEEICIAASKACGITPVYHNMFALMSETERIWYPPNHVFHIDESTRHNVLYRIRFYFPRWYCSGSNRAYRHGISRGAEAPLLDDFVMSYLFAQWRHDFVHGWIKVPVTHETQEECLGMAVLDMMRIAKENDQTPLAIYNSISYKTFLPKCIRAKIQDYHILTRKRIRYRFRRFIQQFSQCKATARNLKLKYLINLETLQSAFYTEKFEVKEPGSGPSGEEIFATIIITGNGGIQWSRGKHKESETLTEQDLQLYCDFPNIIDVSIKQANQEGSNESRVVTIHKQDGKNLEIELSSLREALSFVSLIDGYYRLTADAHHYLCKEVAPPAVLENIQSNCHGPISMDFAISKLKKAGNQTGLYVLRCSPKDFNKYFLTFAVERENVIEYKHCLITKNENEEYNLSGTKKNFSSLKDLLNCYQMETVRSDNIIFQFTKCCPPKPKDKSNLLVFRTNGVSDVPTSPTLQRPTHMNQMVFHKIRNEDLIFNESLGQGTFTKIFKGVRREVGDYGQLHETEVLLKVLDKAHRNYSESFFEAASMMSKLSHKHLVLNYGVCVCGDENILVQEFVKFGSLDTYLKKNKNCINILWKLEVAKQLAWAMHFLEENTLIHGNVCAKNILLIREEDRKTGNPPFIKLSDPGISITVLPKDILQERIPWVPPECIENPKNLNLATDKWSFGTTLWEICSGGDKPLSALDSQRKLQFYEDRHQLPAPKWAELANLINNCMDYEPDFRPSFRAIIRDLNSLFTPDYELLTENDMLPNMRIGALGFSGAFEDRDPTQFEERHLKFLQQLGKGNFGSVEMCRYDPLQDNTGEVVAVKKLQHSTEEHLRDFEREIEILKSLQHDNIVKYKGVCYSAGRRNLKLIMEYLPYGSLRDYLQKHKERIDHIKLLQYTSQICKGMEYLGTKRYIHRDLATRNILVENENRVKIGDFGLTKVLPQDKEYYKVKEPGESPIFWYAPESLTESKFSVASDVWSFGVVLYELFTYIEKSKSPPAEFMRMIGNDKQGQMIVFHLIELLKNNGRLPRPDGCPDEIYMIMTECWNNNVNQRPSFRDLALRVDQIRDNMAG
Sequence of Aurora B (Q96GD4 whole entry, canonical isoform): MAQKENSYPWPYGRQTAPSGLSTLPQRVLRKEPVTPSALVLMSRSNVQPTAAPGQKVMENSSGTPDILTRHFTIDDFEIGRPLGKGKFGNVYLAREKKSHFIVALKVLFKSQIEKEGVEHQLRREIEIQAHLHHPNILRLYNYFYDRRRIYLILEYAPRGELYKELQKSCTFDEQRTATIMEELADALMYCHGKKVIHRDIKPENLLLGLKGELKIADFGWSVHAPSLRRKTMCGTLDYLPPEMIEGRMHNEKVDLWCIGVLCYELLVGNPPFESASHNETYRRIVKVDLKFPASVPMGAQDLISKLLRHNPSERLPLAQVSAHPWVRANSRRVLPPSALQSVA

SMILES	Suppression of MYPT1 Ser445 phosphorylation (in words) [1]	Inhibition of Aurora A in profiling (in words; Aurora isoforms) [2]	Inhibition of BRSK1 in profiling (in words) ([3]; 1 μM)	Inhibition of JAK2 in profiling (in words) [4]	Inhibition of Aurora B in profiling (in words; Aurora isoforms) [5]	Inhibitor concentration for maximal suppression of MYPT1 Ser445 phosphorylation [1]	Aurora A activity, percentage of DMSO control ([2]; 0.1 or 1 μM inhibitor, mean of triplicate)	BRSK1 activity, percentage of DMSO control [3]	JAK2 activity, percentage of DMSO control [4]	Aurora B activity, percentage of DMSO control [5]
CN1C(=O)c2ccccc2N(C)c2nc(Nc3cnn(C4CCNCC4)c3)ncc21 [XMD-17-51]	only partially suppressed	inhibited	inhibited	inhibited	inhibited					
Cc1nc(Nc2cnn(C3CCNCC3)c2)nc2c1N(C)C(=O)c1cc3ccccc3cc1N2C [HTH-01-015]	only led to a partial inhibition					3 to 10 µM	117 percentage	130 percentage	101 percentage	97 percentage
CN1C(=O)c2cc3ccccc3cc2N(C)c2nc(Nc3cnn(C4CCNCC4)c3)ncc21 [XMD-18-42]	only partially suppressed	inhibited		inhibited	inhibited					
CCC(=O)Nc1cccc(Oc2nc(Nc3ccc(N4CCN(C)CC4)cc3OC)ncc2Cl)c1 [WZ4003]	suppressed MYPT1 phosphorylation in a dose-dependent manner					3 to 10 µM		91 percentage	65 percentage	72 percentage

Reference: paper PMC3969223, “Characterization of WZ4003 and HTH-01-015 as selective inhibitors of the LKB1-tumour-suppressor-activated NUAK kinases” (Biochemical Journal, 2013)
